Experimental findings from US11279708B2, “Amidino- and amino-rocaglates as novel translation inhibitors and anticancer agents” (priority 2019, dated 2022) are described below.

Assay [1] has as its system eIF4A-dependent translation. In words: in vitro translation assay, bicistronic FF/HCV/Ren reporter mRNA in Krebs-2 extracts. It counts as biochemical. Conditions: for IC50 / translation inhibition (in words): bicistronic FF/HCV/Ren mRNA; for IC50: FIG. 14/15, read-out: IC50, inhibition of cap-dependent translation (FF relative to REN). On the procedure:
Structure-Activity Relationships. With a number of amidino-rocaglates and amino-rocaglates in hand, we evaluated their inhibition of eIF4A-dependent translation using an in vitro assay as depicted in FIG. 14, where a bicistronic reporter mRNA was designed for translation in Krebs-2 extracts. In FIG. 14 the following description applies (a) IC50 was determined from fitted sigmoid curves; […] indicates the concentration of compound that inhibits cap-dependent translation by 50%, which was normalized by cap-independent translation. For its determination, the bicistronic reporter FF/HCV/Ren mRNA was used to produce Firefly luciferase (cap-dependent) and Renilla luciferase (cap-independent) in Krebs-2 extracts in the presence of indicated compounds at various concentrations. In particular, translation of Firefly luciferase (FF) is cap-dependent and depends on eIF4A activity; in contrast, translation of Renilla luciferase (REN) utilizes the HCV internal ribosome entry site (IRES) which functions independently of eIF4A. IC50's were determined by the inhibition of FF relative to REN obtained in the presence of compound relative to vehicle controls and normalized to REN as an internal control. […] In accordance with the eIF4A-RNA-rocaglamide (2) co-crystallographic analysis (FIG. 4), the amide carbonyl of 2 interacts with Gln195 of eIF4A as a H-bond acceptor, while the tertiary hydroxyl of 2 serves as a H-bond donor to an RNA base. […] To further verify the hypothesis, amidino-rocaglates (pKa of N—H˜26.7-30.7 in DMSO, strong H-bond donors) and amino-rocaglates (pKa of N—H˜36 to 44 in DMSO, weak H-bond donors) were next evaluated. […] Conversely, benzyl amidine 9e had IC50=60 nM, whereas the methylene tether may allow conformational adjustment to avoid rigid repulsion in the binding pocket.
The rocaglate collection was also tested in in vitro translation assays using cell-free extracts with a previously described bicistronic mRNA containing the HCV IRES, which is not dependent on eIF4A activity and served as an internal control (FIG. 19C).
(§1) In Vitro Translation Assays. In vitro translation assays performed in Krebs-2 cell extracts were supplemented with 5 mM MgCl2, 30 mM Tris-HCl (pH 7.5), 1.5 mM ATP, 0.1 mM GTP, 0.6 mM CTP, 10 mM dipotassium creatine phosphate, 80 μg/mL creatine kinase, and 0.04 mM amino acids. The specified mRNA reporters were added to each reaction at a final concentration of 10 ng/μL. The translation reactions were incubated with or without compound for 60 minutes at 30° C. prior to the measurement of luciferase activities.
(§2) FIGS. 19A-19C. Rocaglate activity profiling. 19A. Assessing eIF4A1:poly r(AG)8 (SEQ ID NO: 2) RNA binding by FP in the presence of 10 μM rocaglate. Values are expressed relative to vehicle controls and data is rank ordered. n=3±SD. 19B. The change in polarization obtained with eIF4A1:poly r(AG)8 (SEQ ID NO: 2) and eIF4A2:poly r(AG)8 (SEQ ID NO: 2) RNA. Pearson r=0.814; p<0.0001. 19C. Inhibition of cap-dependent translation by rocaglates was measured using the indicated mRNA bicistronic reporter (4 ng/ul) in Krebs-2 extracts at a final compound concentration of 2 μM. n=3±SD.
FIG. 35A-35E are plots showing dose-response curve of FF-HCV-Ren mRNA translation in Krebs extracts with IC50s shown for inhibition of cap-dependent protein synthesis. Values are plotted relative to DMSO controls. n=2 technical replicates performed in duplicate.

In the next assay the test system is HEK 293 cells. Kind of assay: in cellula translation of transfected (AG)10- and (UC)10-FF/HCV/Ren mRNA. It counts as cell-based. Conditions: compound added 1 h after mRNA transfection, 6 h exposure. The source says: We next asked if differences in behavior among rocaglates towards the (AG)10- and (UC)10-reporters observed in vitro also extended in cellula (FIG. 26B). This was important since in cells, mRNA transcripts need to compete for components of the translation initiation machinery from a complex cellular mRNA pool and this scenario is difficult to recapitulate in experiments using cell-free extracts. Following mRNA transfections, cells were exposed to compound and luciferase activity determined.
RNA Transfections. HEK 293 cells were transfected in a 24 well plate with 0.25 μg/well of in vitro synthesized capped m^7GpppG(AG)10-FF/HCV/Ren or m^7GpppG(UC)10FF/HCV/Ren mRNA and 1 h later were exposed to the indicated concentrations of compounds for an additional 6 h. Following this, extracts were prepared using passive lysis buffer (PLB, Promega) and luciferase activity measured on a Berthold Lumt LB 9507 luminometer.
FIGS. 26A-26B. In cellula activity of rocaglates. 26A. Cytotoxicity of rocaglates towards NIH/3T3 (grey circle) and the NIH/3T3 rocaglate-resistant line, eIF4A^em1JP(redtriangle). Cells were exposed to 40 nM compound for 4 days and viability was measured using the SRB assay. n=3±SD. 26B. Rocaglates show different sequence preferences for inhibiting cap-dependent translation in cellula. HEK 293 cells were transfected with 0.5 μg of in vitro synthesized capped (AG)10-FF/HCV/Ren or (UC)10-FF/HCV/Ren mRNA and 1h later exposed to the indicated concentrations of compounds for an additional 6 h, at which time extracts were prepared and luciferase activity measured. n=3 SD.
FIG. 28. In cellula dose-response of (AG)10- and (UC)10-FF/HCV/Ren mRNAs to hippuristanol and pateamine. Firefly and renilla luciferase activity in response to the indicated compound concentrations (relative to DMSO controls) following mRNA transfections in 293 cells. n=3±SD.

Assay [2] deals with cap-dependent translation. Kind of assay: in vitro translation of (AG)10- and (UC)10-FF/HCV/Ren mRNA reporters in Krebs-2 extracts. It counts as biochemical. Particulars: cap-proximal (AG)10 or (UC)10. The method, then:
Rocaglates show differing mRNA targeting spectra in translation assays. The in vitro experiments described above investigating the rocaglate-mediated inhibition of cap-dependent translation were performed at a fixed rocaglate concentration (2 μM) using a generic bicistronic mRNA reporter in Krebs-2 cell-free translation extracts (FIG. 19C). To better assess the consequences of eIF4A:polypurine clamping on the initiation process, we designed a series of bicistronic reporters harboring cap-proximal polypurine tracks of varying lengths in their 5′ leader region (FIG. 22A). […] We reasoned that these reporters would provide a sensitized readout for rocaglate-induce clamping of eIF4A at this location.
We next tested the response of mRNA reporters containing cap-proximal (AG)10 or (UC)10 sequences (FIG. 22A). […] The difference in activity observed between CR-1-31-B (23) and silvestrol 1 was not restricted to cap-proximal polypurine tracks, but also observed with reporters where the polypurine/polypyrimidine tracks were situated 15 nt downstream from the cap (FIGS. 24A and 24B).
as §1
FIGS. 23A-23C. The presence of polypurines bases in mRNA 5′ leader regions are not universal predictors of rocaglate-responsiveness. FIG. 23A. Schematic diagram of FF/HCV/Ren mRNA reporters containing cap-proximal (AG) or (UC) dinucleotide repeats. 23B. Firefly and renilla luciferase activity in response to the indicated CR-1-31-B (23) concentrations (relative to DMSO controls) in Krebs-2 extracts programmed with 4 ng/uL of the indicated mRNAs. n=3±SD. 23C. Dose response of the indicated compounds in Krebs-2 extracts programmed with 4 ng/μL of the indicated mRNAs. n=3± SD.
FIG. 23. Dose-response of (AG)10- and (UC)10-FF/HCV/Ren mRNAs to CMLD011167, hippuristanol and pateamine A in vitro. Firefly and renilla luciferase activity in response to the indicated compound concentrations (relative to DMSO controls) in Krebs-2 extracts programmed with 4 ng/μL of the indicated mRNAs. n=3± SD.

A further assay addresses T1, eIF4A1:poly r(AG)8 RNA (Homo sapiens, UniProt P60842).
T1 construct: His6 (N); made in house; host or cells: E. coli BL21 (DE3)
In words: fluorescence polarization (FP) assay, eIF4A1 binding to FAM-labelled RNA. Conditions: 500 nM eIF4A1, 10 nM FAM-labelled RNA, screen at 10 μM compound.
Excerpt: Rocaglates similarly enhance RNA binding of eIF4A1 and eIF4A2. In order to rapidly evaluate the ability of rocaglates to stimulate binding of eIF4A to RNA, a fluorescence polarization (FP) assay using a FAM (fluorescein amidite)-labelled RNA probe (FIG. 18A) was used. […] Due to the high degree of shared amino acid identity between the two paralogs, their apparent similarity with respect to RNA binding activity and response to CR-1-31-B (23), and the fact that eIF4A1 is essential but eIF4A2 is not, eIF4A1 was used in the majority of our subsequent experiments.
Fluorescence Polarization (FP) Assays. Unless otherwise specified, eIF4A (500 nM) was incubated with 10 nM FAM-labelled RNA for 30 min in FP buffer (14.4 mM HEPES-NaOH (pH 8), 108 mM NaCl, 1 mM MgCl2, 14.4% glycerol, 0.1% DMSO, 2 mM DTT, 1 mM AMPPNP) at room temperature in black low volume 384 well plates (Corning 3820). FP readings were performed on a Pherastar FS microplate reader (BMG Labtech).
as §2
FIG. 21. Assessing stimulation of eIF4A1:RNA binding by rocaglates and pateamine. FAM-labelled RNA was incubated in the presence of 500 nM eIF4A1 and the indicated concentrations of compound for 30 min, after which time FP measurements were taken. Limitations in WGD-57-591 availability prevented us from extending the titrations to 100 μM. The change in FP obtained relative to vehicle controls is presented. n=3±SD. FP results of competition assays in which preformed eIF4A1:rocaglate:FAM-poly r(AG)10 complexes were incubated in the presence of poly r(AG)10 (SEQ ID NO: 39) and dissociation measured as a function of time. n=3±SD.
On the technique in general: In fluorescence polarisation assays a small probe gives low polarisation when free and higher when bound to something large.

T1 sequence (P60842 whole entry, species assumed): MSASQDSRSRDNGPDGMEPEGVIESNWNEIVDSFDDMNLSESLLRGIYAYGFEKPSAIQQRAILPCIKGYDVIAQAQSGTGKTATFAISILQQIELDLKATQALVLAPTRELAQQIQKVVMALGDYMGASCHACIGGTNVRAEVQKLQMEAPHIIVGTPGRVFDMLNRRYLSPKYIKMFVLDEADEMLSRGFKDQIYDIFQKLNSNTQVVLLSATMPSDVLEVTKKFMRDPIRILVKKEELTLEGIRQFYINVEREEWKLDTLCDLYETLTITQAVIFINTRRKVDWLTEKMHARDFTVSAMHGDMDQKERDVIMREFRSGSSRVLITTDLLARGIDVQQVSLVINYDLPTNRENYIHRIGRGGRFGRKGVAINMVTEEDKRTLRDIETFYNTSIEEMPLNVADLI

Consider `COc1ccc([C@@]23Oc4cc(OC)cc(OC)c4[C@@]24NC(C)=N[C@@]4(O)[C@H](C(=O)N(C)OC)[C@H]3c2ccccc2)cc1` [9aa], for which the IC50 – broadly, the point on the concentration scale where inhibition reaches its midpoint – in assay [1] was 59 nM.
Still for that read-out and setting: the figure for `CCCCC1=N[C@@]2(O)[C@H](C(=O)OC)[C@@H](c3ccccc3)[C@]3(c4ccc(OC)cc4)Oc4cc(OC)cc(OC)c4[C@]23N1` [9d] is 187 nM; for `COC(=O)[C@@H]1[C@@H](c2ccccc2)[C@]2(c3ccc(OC)cc3)Oc3cc(OC)cc(OC)c3[C@@]23NC(Cc2ccccc2)=N[C@@]13O` [9e] it is 60 nM; for `COC(=O)[C@@H]1[C@@H](c2ccccc2)[C@]2(c3ccc(OC)cc3)Oc3cc(OC)cc(OC)c3[C@@]23NC(C(C)(C)C)=N[C@@]13O` [9f] it is 267 nM.
With `COC(=O)[C@@H]1[C@@H](c2ccccc2)[C@]2(c3ccc(OC)cc3)Oc3cc(OC)cc(OC)c3[C@@]23NC(N)=N[C@@]13O` [9j], the IC50 in assay [1] was determined as 125 nM.
In the case of `COCC1=N[C@@]2(O)[C@H](C(=O)OC)[C@@H](c3ccccc3)[C@]3(c4ccc(OC)cc4)Oc4cc(OC)cc(OC)c4[C@]23N1` [9k], the IC50 in assay [1] stood at 64 nM.
Same read-out and setting: the figure for `COc1ccc([C@@]23Oc4cc(OC)cc(OC)c4[C@@]24NC(C)=N[C@@]4(O)[C@H](C(=O)N(C)C)[C@H]3c2ccccc2)cc1` [9z] is 63 nM.
On to `CONC(=O)[C@H]1[C@@H](O)[C@@]2(O)c3c(OC)cc(OC)cc3O[C@@]2(c2ccc(Br)cc2)[C@@H]1c1ccccc1` [SDS-1-021], for which, in assay [1] (screen at 2 μM compound), the “inhibition of cap-dependent translation in vitro (in words)” value was “the most potent compound”.
Take `COCCN[C@]12c3c(OC)cc(OC)cc3O[C@@]1(c1ccc(OC)cc1)[C@H](c1ccccc1)[C@@H](C(=O)N(C)C)[C@H]2O` [compound 18]: in assay [1], the “translation inhibition (in words)” value was “no translation inhibition”.
The same measure, in the same setting: the entry for `COCCN[C@]12c3c(OC)cc(OC)cc3O[C@@]1(c1ccc(OC)cc1)[C@H](c1ccccc1)C[C@@H]2O` [compound 20] is “no translation inhibition”; for `COCCN[C@]12c3c(OC)cc(OC)cc3O[C@@]1(c1ccc(OC)cc1)[C@H](c1ccccc1)C[C@@H]2N` [compound 22] it is “no translation inhibition”.
Turning to `C[C@H]1C[C@@]2(O[C@H]3C[C@H]4[C@@H]5CC[C@H]6C[C@H](O)CC[C@]6(C)[C@H]5[C@@H](O)C[C@]4(C)[C@H]3[C@@]2(C)O)OC1(C)C` [hippuristanol], the “inhibition of (AG)10 versus (UC)10 reporter in cellula (in words)” value with HEK 293 cells is on record as “inhibited both reporters equally”. Further, the “inhibition of (AG)10 versus (UC)10 reporter in vitro (in words)” value in assay [2] is reported as “equally repressed cap-dependent translation from both”.
As for `CC(/C=C/C(C)=C/[C@@H]1Cc2nc(cs2)[C@@H](C)C[C@@H](N)CC(=O)O[C@@H](C)C/C(C)=C/C=C\C(=O)O1)=C\CN(C)C` [pateamine A], the “stimulation of eIF4A1:RNA binding (in words)” value on eIF4A1:poly r(AG)8 RNA is listed as “potently induced binding to all RNA substrates tested”. Further, the “inhibition of (AG)10 versus (UC)10 reporter in cellula (in words)” value in the assay with HEK 293 cells is “inhibited both reporters equally”. For the same compound, the “inhibition of (AG)10 versus (UC)10 reporter in vitro (in words)” value in assay [2] was “equally repressed cap-dependent translation from both”.
